Measurements taken from PubChem BioAssay (NCI).
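The concentration for 50% growth inhibition is given as GI50. At the TGI there is no net growth.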

What was measured:
Experiment in all cases: growth of human tumour cells (NCI), 384-well format
[1] = test system: PC-3 prostate
[2] = test system: DU-145 prostate
[3] = test system: SF-295 CNS
[4] = test system: TK-10 renal
[5] = test system: NCI-H460 NSCLC
[6] = test system: CCRF-CEM leukemia
[7] = test system: M14 melanoma
[8] = test system: UACC-62 melanoma
[9] = test system: MDA-MB-231 breast
[10] = test system: RXF 393 renal
[11] = test system: U251 glioblastoma
[12] = test system: HL-60(TB) leukemia
[13] = test system: NCI/ADR-RES ovarian
[14] = test system: SK-MEL-28 melanoma
[15] = test system: UO-31 renal
[16] = test system: OVCAR-8 ovarian
[17] = test system: MALME-3M melanoma
[18] = test system: OVCAR-5 ovarian
[19] = test system: NCI-H226 lung
[20] = test system: SR leukemia
[21] = test system: SF-539 CNS
[22] = test system: MCF7 breast
[23] = test system: UACC-257 melanoma
[24] = test system: MDA-MB-468 breast
[25] = test system: HT29 colon
[26] = test system: NCI-H23 lung
[27] = test system: SNB-19 CNS
[28] = test system: HOP-92 NSCLC
[29] = test system: BT-549 breast

C=CC(=O)N1CCN(c2nc(OC[C@@H]3CCCN3C)nc3c2CCN(c2cccc4cccc(C)c24)C3)C[C@@H]1CC#N
GI50 [1]: 759 nM
TGI [1]: 1980 nM
GI50 [2]: 1400 nM
TGI [2]: 2710 nM
GI50 [3]: 1590 nM
TGI [3]: 2940 nM
GI50 [4]: 505 nM
TGI [4]: 1700 nM
GI50 [5]: 754 nM
TGI [5]: 2060 nM
GI50 [6]: 133 nM
TGI [6]: 265 nM
GI50 [7]: 1270 nM
TGI [7]: 2530 nM
GI50 [8]: 411 nM
TGI [8]: 1500 nM
GI50 [9]: 312 nM
TGI [9]: 1270 nM
GI50 [10]: 189 nM
TGI [10]: 575 nM
GI50 [11]: 1010 nM
TGI [11]: 2200 nM
GI50 [12]: 181 nM
TGI [12]: 322 nM
GI50 [13]: 1610 nM
TGI [13]: 2970 nM
GI50 [14]: 1620 nM
TGI [14]: 2980 nM
GI50 [15]: 983 nM
TGI [15]: 2150 nM
GI50 [16]: 1050 nM
TGI [16]: 2240 nM
GI50 [17]: 1220 nM
TGI [17]: 2460 nM
GI50 [18]: 1470 nM
TGI [18]: 2800 nM
GI50 [19]: 1160 nM
TGI [19]: 2390 nM
GI50 [20]: 134 nM
TGI [20]: 267 nM
GI50 [21]: 644 nM
TGI [21]: 1940 nM
GI50 [22]: 834 nM
TGI [22]: 2090 nM
GI50 [23]: 833 nM
TGI [23]: 2070 nM
GI50 [24]: 367 nM
TGI [24]: 1020 nM
GI50 [25]: 1260 nM
TGI [25]: 2540 nM
GI50 [26]: < 10 nM
GI50 [27]: 1570 nM
TGI [27]: 2930 nM
GI50 [28]: 223 nM
TGI [28]: 687 nM
GI50 [29]: 265 nM
TGI [29]: 999 nM
